# Results as given in ChEMBL document CHEMBL5325453, “Isolation and identification of the new baicalin target protein to develop flavonoid structure-based therapeutic agents” (Bioorg Med Chem, 2023).
# Assays:
# [1] = molecular target: T1, Glyceraldehyde-3-phosphate dehydrogenase (Homo sapiens, UniProt P04406); assay: Binding affinity to human recombinant GAPDH incubated for 30 mins by fluorescence quenching assay; details: dose <= 50.0 µM
# Target sequence in this assay (P04406 2-335 limits assumed): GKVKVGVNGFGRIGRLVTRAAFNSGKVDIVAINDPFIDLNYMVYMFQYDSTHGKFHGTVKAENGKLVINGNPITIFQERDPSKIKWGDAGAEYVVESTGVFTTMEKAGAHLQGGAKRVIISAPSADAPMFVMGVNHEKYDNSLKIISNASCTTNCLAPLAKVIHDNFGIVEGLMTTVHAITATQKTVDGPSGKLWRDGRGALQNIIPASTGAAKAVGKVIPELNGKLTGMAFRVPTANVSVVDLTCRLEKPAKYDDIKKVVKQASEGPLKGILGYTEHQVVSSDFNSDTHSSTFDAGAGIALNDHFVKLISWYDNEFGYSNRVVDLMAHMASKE
# [2] = molecular target: T1, Glyceraldehyde-3-phosphate dehydrogenase; assay: Binding affinity to human recombinant GAPDH assessed as Stem-Volmer quenching constant at 298 K incubated for 30 mins by fluorescence quenching assay
# Target sequence in this assay (P04406 2-335 limits assumed): as above
# [3] = molecular target: T1, Glyceraldehyde-3-phosphate dehydrogenase; assay: Binding affinity to human recombinant GAPDH assessed as Stem-Volmer quenching constant at 310 K incubated for 30 mins by fluorescence quenching assay
# Target sequence in this assay (P04406 2-335 limits assumed): as above
# [4] = molecular target: T1, Glyceraldehyde-3-phosphate dehydrogenase; assay: Binding affinity to human recombinant GAPDH assessed as equilibrium binding constant at 298 K incubated for 30 mins by fluorescence quenching assay
# Target sequence in this assay (P04406 2-335 limits assumed): as above
# [5] = molecular target: T1, Glyceraldehyde-3-phosphate dehydrogenase; assay: Binding affinity to human recombinant GAPDH assessed as equilibrium binding constant at 310 K incubated for 30 mins by fluorescence quenching assay
# Target sequence in this assay (P04406 2-335 limits assumed): as above
# [6] = molecular target: T1, Glyceraldehyde-3-phosphate dehydrogenase; assay: Binding affinity to human recombinant GAPDH assessed as change in enthalpy at 298 K incubated for 30 mins by fluorescence quenching assay
# Target sequence in this assay (P04406 2-335 limits assumed): as above
# [7] = molecular target: T1, Glyceraldehyde-3-phosphate dehydrogenase; assay: Binding affinity to human recombinant GAPDH assessed as change in entropy at 298 K incubated for 30 mins by fluorescence quenching assay
# [8] = molecular target: T1, Glyceraldehyde-3-phosphate dehydrogenase; assay: Binding affinity to human recombinant GAPDH assessed as change in gibbs free energy at 298 K incubated for 30 mins by fluorescence quenching assay
# [9] = molecular target: T1, Glyceraldehyde-3-phosphate dehydrogenase; assay: Binding affinity to human recombinant GAPDH assessed as change in gibbs free energy at 310 K incubated for 30 mins by fluorescence quenching assay
# [10] = molecular target: T1, Glyceraldehyde-3-phosphate dehydrogenase; assay: Inhibition of human recombinant GADPH incubated for 30 mins by absorbance based assay
# Target sequence in this assay (P04406 whole entry): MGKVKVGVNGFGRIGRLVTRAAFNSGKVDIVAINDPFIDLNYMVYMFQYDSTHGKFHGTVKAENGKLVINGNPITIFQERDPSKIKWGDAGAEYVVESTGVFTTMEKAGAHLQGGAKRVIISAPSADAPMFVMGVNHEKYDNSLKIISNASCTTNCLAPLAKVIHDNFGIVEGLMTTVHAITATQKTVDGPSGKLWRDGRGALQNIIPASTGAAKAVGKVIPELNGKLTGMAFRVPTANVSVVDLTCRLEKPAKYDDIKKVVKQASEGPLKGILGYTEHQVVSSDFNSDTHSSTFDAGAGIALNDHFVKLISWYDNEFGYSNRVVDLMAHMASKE
Activity [1],KSV [2] [µM⁻¹],KSV [3] [µM⁻¹],Kb [4] [M⁻¹],Kb [5] [M⁻¹],deltaH [6] [kcal/mol],deltaS [7] [J/mol/K],deltaG [8] [kcal/mol],deltaG [9] [kcal/mol],IC50 [10] [µM],Structure (SMILES)
Dose-Dependent Effect,27.3,17.4,2270,634,-19.5,-210,-4.58,-3.97,40.9,O=C(O)[C@H]1O[C@@H](Oc2cc3oc(-c4ccccc4)cc(=O)c3c(O)c2O)[C@H](O)[C@@H](O)[C@@H]1O [BAICALIN]
Dose-Dependent Effect,26.7,26.3,427,341,-3.42,2.38,-3.59,-3.59,43.9,O=c1cc(-c2ccccc2)oc2cc(O)c(O)c(O)c12 [BAICALEIN]
